In patent US8163724B2, “Glucocorticosteroids, processes for their preparation, pharmaceutical compositions containing them and their use in therapy” (AstraZeneca AB, priority 2007, dated 2012):

These compounds were tested against T1, recombinant human GR (Homo sapiens, UniProt P04150) (assay: Human Glucocorticoid Receptor (GR) Assay (fluorescence polarization, Panvera/Invitrogen kit)). Settings: fluorescence polarization; GS Red tracer; 2 hours at room temperature; 100% control 10 μM Dexamethasone; read-out: Inhibition of GR binding, IC50.
T1 construct: purchased Panvera/Invitrogen P2812 (kit P2893)
T1 sequence (P04150 1-777): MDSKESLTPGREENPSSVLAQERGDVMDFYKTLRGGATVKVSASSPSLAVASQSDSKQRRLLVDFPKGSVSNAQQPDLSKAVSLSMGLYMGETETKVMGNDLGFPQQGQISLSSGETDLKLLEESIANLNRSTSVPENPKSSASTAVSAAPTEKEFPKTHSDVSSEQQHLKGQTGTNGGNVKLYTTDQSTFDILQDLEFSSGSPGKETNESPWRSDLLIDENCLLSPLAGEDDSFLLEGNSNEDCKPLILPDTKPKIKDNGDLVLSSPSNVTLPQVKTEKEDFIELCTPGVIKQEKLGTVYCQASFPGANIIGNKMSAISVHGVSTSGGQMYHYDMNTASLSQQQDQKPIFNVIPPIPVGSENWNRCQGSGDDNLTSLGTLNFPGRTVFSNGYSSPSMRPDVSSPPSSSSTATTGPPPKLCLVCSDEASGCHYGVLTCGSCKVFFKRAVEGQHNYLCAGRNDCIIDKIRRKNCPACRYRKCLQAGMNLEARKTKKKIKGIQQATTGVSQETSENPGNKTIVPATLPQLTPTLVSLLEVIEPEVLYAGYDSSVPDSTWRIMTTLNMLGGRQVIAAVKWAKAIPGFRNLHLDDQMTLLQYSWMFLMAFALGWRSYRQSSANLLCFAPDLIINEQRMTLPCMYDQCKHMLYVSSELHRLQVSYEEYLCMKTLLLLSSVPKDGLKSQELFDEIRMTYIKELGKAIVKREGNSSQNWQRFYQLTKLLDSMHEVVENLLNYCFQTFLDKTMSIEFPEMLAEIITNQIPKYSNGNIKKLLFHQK
Type: binding
Outline: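 Fluorescence polarization competition with recombinant GR and GS Red fluorescent ligand plus stabilizing peptide and DTT in potassium phosphate/sodium molybdate/EDTA buffer with DMSO. Incubated 2 hours at room temperature in the dark; 0% control DMSO, 100% control 10 μM dexamethasone.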
Compound `C[C@]12Cc3cnn(-c4ccc(F)cc4)c3C=C1CC[C@@H]1[C@@H]2[C@@H](O)C[C@@]2(C)[C@H]1CC[C@]2(OC(=O)c1ccco1)C(=O)SCCCC#N` [Example 86, (1R,3aS,3bS,10aR,10bS,11S,12aS)-1-{[(3-Cyanopropyl)sulfanyl]carbonyl}-7-(4-fluorophenyl)-11-hydroxy-10a,12a-dimethyl-1,2,3,3a,3b,4,5,7,10,10a,10b,11,12,12a-tetradecahydrocyclopenta[5,6]naphtho[1,2-f]indazol-1-yl furan-2-carboxylate] has an IC50 of 3.5 nM. Compound `CC(=O)OCC(=O)CSC(=O)[C@@]1(OC(=O)c2ccco2)CC[C@H]2[C@@H]3CCC4=Cc5c(cnn5-c5ccc(F)cc5)C[C@]4(C)[C@H]3[C@@H](O)C[C@@]21C` [Example 87, (1R,3aS,3bS,10aR,10bS,11S,12aS)-1-({[3-(Acetyloxy)-2-oxopropyl]sulfanyl}carbonyl)-7-(4-fluorophenyl)-11-hydroxy-10a,12a-dimethyl-1,2,3,3a,3b,4,5,7,10,10a,10b,11,12,12a-tetradecahydrocyclopenta[5,6]naphtho[1,2-f]indazol-1-yl furan-2-carboxylate] has an IC50 of 5.3 nM. `C=C(CSC(=O)[C@@]1(OC(=O)c2ccco2)CC[C@H]2[C@@H]3CCC4=Cc5c(cnn5-c5ccc(F)cc5)C[C@]4(C)[C@H]3[C@@H](O)C[C@@]21C)OCOC` [Example 88, (1R,3aS,3bS,10aR,10bS,11S,12aS)-7-(4-fluorophenyl)-11-hydroxy-1-({[2-(methoxymethoxy)prop-2-en-1-yl]sulfanyl}carbonyl)-10a,12a-dimethyl-1,2,3,3a,3b,4,5,7,10,10a,10b,11,12,12a-tetradecahydrocyclopenta[5,6]naphtho[1,2-f]indazol-1-yl furan-2-carboxylate] showed an IC50 of 13 nM. For `CC(=O)CSC(=O)[C@@]1(OC(=O)c2ccco2)CC[C@H]2[C@@H]3CCC4=Cc5c(cnn5-c5ccc(F)cc5)C[C@]4(C)[C@H]3[C@@H](O)C[C@@]21C` [Example 89, (1R,3aS,3bS,10aR,10bS,11S,12aS)-7-(4-Fluorophenyl)-11-hydroxy-10a,12a-dimethyl-1-{[(2-oxopropyl)sulfanyl]carbonyl}-1,2,3,3a,3b,4,5,7,10,10a,10b,11,12,12a-tetradecahydrocyclopenta[5,6]naphtho[1,2-f]indazol-1-yl furan-2-carboxylate], the IC50 was 6.9 nM. `C[C@]12Cc3cnn(-c4ccc(F)cc4)c3C=C1CC[C@@H]1[C@@H]2[C@@H](O)C[C@@]2(C)[C@H]1CC[C@]2(OC(=O)c1ccco1)C(=O)SCC(N)=O` [Example 90, (1R,3aS,3bS,10aR,10bS,11S,12aS)-1-{[(2-Amino-2-oxoethyl)sulfanyl]carbonyl}-7-(4-fluorophenyl)-11-hydroxy-10a,12a-dimethyl-1,2,3,3a,3b,4,5,7,10,10a,10b,11,12,12a-tetradecahydrocyclopenta[5,6]naphtho[1,2-f]indazol-1-yl furan-2-carboxylate] was tested, and the IC50 was 4.6 nM. `C[C@]12Cc3cnn(-c4ccc(F)cc4)c3C=C1CC[C@@H]1[C@@H]2[C@@H](O)C[C@@]2(C)[C@H]1CC[C@]2(OC(=O)c1ccco1)C(=O)SCCO` [Example 91, (1R,3aS,3bS,10aR,10bS,11S,12aS)-7-(4-fluorophenyl)-11-hydroxy-1-{[(2-hydroxyethyl)sulfanyl]carbonyl}-10a,12a-dimethyl-1,2,3,3a,3b,4,5,7,10,10a,10b,11,12,12a-tetradecahydrocyclopenta[5,6]naphtho[1,2-f]indazol-1-yl furan-2-carboxylate] gave an IC50 of 3.7 nM. `C[C@]12Cc3cnn(-c4ccc(F)cc4)c3C=C1CC[C@@H]1[C@@H]2[C@@H](O)C[C@@]2(C)[C@H]1CC[C@]2(OC(=O)c1ccco1)C(=O)SCCCO` [Example 92, (1R,3aS,3bS,10aR,10bS,11S,12aS)-7-(4-Fluorophenyl)-11-hydroxy-1-{[(3-hydroxypropyl)sulfanyl]carbonyl}-10a,12a-dimethyl-1,2,3,3a,3b,4,5,7,10,10a,10b,11,12,12a-tetradecahydrocyclopenta[5,6]naphtho[1,2-f]indazol-1-yl furan-2-carboxylate] gave an IC50 of 4 nM. Compound `COCSC(=O)[C@@]1(OC(=O)c2ccco2)CC[C@H]2[C@@H]3CCC4=Cc5c(cnn5-c5ccc(F)cc5)C[C@]4(C)[C@H]3[C@@H](O)C[C@@]21C` [Example 93, (1R,3aS,3bS,10aR,10bS,11S,12aS)-7-(4-Fluorophenyl)-11-hydroxy-1-{[(methoxymethyl)sulfanyl]carbonyl}-10a,12a-dimethyl-1,2,3,3a,3b,4,5,7,10,10a,10b,11,12,12a-tetradecahydrocyclopenta[5,6]naphtho[1,2-f]indazol-1-yl furan-2-carboxylate] has an IC50 of 5.6 nM. With `CC(=O)OCSC(=O)[C@@]1(OC(=O)c2ccco2)CC[C@H]2[C@@H]3CCC4=Cc5c(cnn5-c5ccc(F)cc5)C[C@]4(C)[C@H]3[C@@H](O)C[C@@]21C` [Example 94, (1R,3aS,3bS,10aR,10bS,11S,12aS)-1-({[(Acetyloxy)methyl]sulfanyl}carbonyl)-7-(4-fluorophenyl)-11-hydroxy-10a,12a-dimethyl-1,2,3,3a,3b,4,5,7,10,10a,10b,11,12,12a-tetradecahydrocyclopenta[5,6]naphtho[1,2-f]indazol-1-yl furan-2-carboxylate] the IC50 was 5.9 nM. With `CCC(=O)O[C@]1(C(=O)SCCOC(C)=O)CC[C@H]2[C@@H]3CCC4=Cc5c(cnn5-c5ccc(F)cc5)C[C@]4(C)[C@H]3[C@@H](O)C[C@@]21C` [Example 95, (1R,3aS,3bS,10aR,10bS,11S,12aS)-1-({[2-(Acetyloxy)ethyl]sulfanyl}carbonyl)-7-(4-fluorophenyl)-11-hydroxy-10a,12a-dimethyl-1,2,3,3a,3b,4,5,7,10,10a,10b,11,12,12a-tetradecahydrocyclopenta[5,6]naphtho[1,2-f]indazol-1-yl propanoate] the IC50 was 4.7 nM. With `CCC(=O)O[C@]1(C(=O)SCC#N)CC[C@H]2[C@@H]3CCC4=Cc5c(cnn5-c5ccc(F)nc5)C[C@]4(C)[C@H]3[C@@H](O)C[C@@]21C` [Example 97, (1R,3aS,3bS,10aR,10bS,11S,12aS)-1-{[(Cyanomethyl)sulfanyl]carbonyl}-7-(6-fluoropyridin-3-yl)-11-hydroxy-10a,12a-dimethyl-1,2,3,3a,3b,4,5,7,10,10a,10b,11,12,12a-tetradecahydrocyclopenta[5,6]naphtho[1,2-f]indazol-1-yl propanoate] the IC50 was 2.1 nM. For `CCC(=O)O[C@]1(C(=O)SCOC)CC[C@H]2[C@@H]3CCC4=Cc5c(cnn5-c5ccc(F)nc5)C[C@]4(C)[C@H]3[C@@H](O)C[C@@]21C` [Example 98, (1R,3aS,3bS,10aR,10bS,11S,12aS)-7-(6-Fluoropyridin-3-yl)-11-hydroxy-1-{[(methoxymethyl)sulfanyl]carbonyl}-10a,12a-dimethyl-1,2,3,3a,3b,4,5,7,10,10a,10b,11,12,12a-tetradecahydrocyclopenta[5,6]naphtho[1,2-f]indazol-1-yl propanoate], the IC50 was 3.1 nM. Compound `CCC(=O)O[C@]1(C(=O)SCF)CC[C@H]2[C@@H]3CCC4=Cc5c(cnn5-c5ccc(F)nc5)C[C@]4(C)[C@H]3[C@@H](O)C[C@@]21C` [Example 99, (1R,3aS,3bS,10aR,10bS,11S,12aS)-1-{[(Fluoromethyl)sulfanyl]carbonyl}-7-(6-fluoropyridin-3-yl)-11-hydroxy-10a,12a-dimethyl-1,2,3,3a,3b,4,5,7,10,10a,10b,11,12,12a-tetradecahydrocyclopenta[5,6]naphtho[1,2-f]indazol-1-yl propanoate] has an IC50 of 2.1 nM. Compound `C[C@]12Cc3cnn(-c4cccc(C(=O)N5CCOCC5)c4)c3C=C1CC[C@@H]1[C@@H]2[C@@H](O)C[C@@]2(C)[C@H]1CC[C@]2(OC(=O)c1ccco1)C(=O)SCF` [Example 100, (1R,3aS,3bS,10aR,10bS,11S,12aS)-1-{[(Fluoromethyl)thio]carbonyl}-11-hydroxy-10a,12a-dimethyl-7-[3-(morpholin-4-ylcarbonyl)phenyl]-1,2,3,3a,3b,4,5,7,10,10a,10b,11,12,12a-tetradecahydrocyclopenta[5,6]naphtho[1,2-f]indazol-1-yl furan-2-carboxylate] has an IC50 of 2.7 nM. In the case of `C[C@]12Cc3cnn(-c4ccc(F)cc4F)c3C=C1CC[C@@H]1[C@@H]2[C@@H](O)C[C@@]2(C)[C@H]1CC[C@]2(OC(=O)c1ccco1)C(=O)SCC#N` [Example 101, (1R,3aS,3bS,10aR,10bS,11S,12aS)-1-{[(Cyanomethyl)thio]carbonyl}-7-(2,4-difluorophenyl)-11-hydroxy-10a,12a-dimethyl-1,2,3,3a,3b,4,5,7,10,10a,10b,11,12,12a-tetradecahydrocyclopenta[5,6]naphtho[1,2-f]indazol-1-yl furan-2-carboxylate], the IC50 is reported as 29 nM.
